# Read-outs that look alike come from different tables or passages of the source.
# B1: OVA (protein, UniProt P01012 2-386, looked up)
# Ovalbumin: GSIGAASMEFCFDVFKELKVHHANENIFYCPIAIMSALAMVYLGAKDSTRTQINKVVRFDKLPGFGDSIEAQCGTSVNVHSSLRDILNQITKPNDVYSFSLASRLYAEERYPILPEYLQCVKELYRGGLEPINFQTAADQARELINSWVESQTNGIIRNVLQPSSVDSQTAMVLVNAIVFKGLWEKAFKDEDTQAMPFRVTEQESKPVQMMYQIGLFRVASMASEKMKILELPFASGTMSMLVLLPDEVSGLEQLESIINFEKLTEWTSSNVMEERKIKVYLPRMKMEEKYNLTSVLMAMGITDVFSSSANLSGISSAESLKISQAVHAAHAEINEAGREVVGSAEAGVDAASVSEEFRADHPFLFCIKHIATNAVLFFGRCVSP
# Columns and labels:
# [1] = tested on: EG7 tumor; design: species or system C57BL6 mice; settings: mouse, in vivo, sc
# [2] = tested on: dendritic cells; design: species or system mice; settings: mouse, in vivo
# [3] = tested on: Gb3; design: species or system mice; settings: mouse, in vivo
# [4] = tested on: EG7 tumor; design: species or system C57BL6 mice; settings: mouse, in vivo, sc; remark: listed apart in the source
# [5] = tested on: anti-OVA257-264 CD8^+T cells; design: species or system C57BL/6 mice; settings: mouse, in vivo
molecule,measurement,setting,value
CCCCCCCCCCCCCCCCCCCCCCCCCC(=O)N[C@@H](CC[C@H]1O[C@H](CO)[C@H](O)[C@H](O)[C@H]1O)[C@H](O)[C@H](O)CCCCCCCCCCCCCC [C-αGalCer],growth of EG7 tumor,[1],will not control the growth of the tumor
"CCCCCCCCCCCCCCCCCCCCCCCCCC(=O)N[C@@H](CO[C@H]1O[C@H](CO)[C@H](O)[C@H](O)[C@H]1O)[C@H](O)[C@H](O)CCCCCCCCCCCCCC [α-GalCer, (2S,3S,4S)-1-O-(α-D-galactopyranosyloxy)-2-hexacosanoylamino-3,4-octadecanediol]",costimulatory molecules (CD86) and MHC class II / activation of dendritic cells,[2],rapid increase
same,membrane expression of Gb3 on dendritic and B cells,[3],did not regulate
same,growth of EG7 tumor,[4],did not control the growth of the tumor
Poly (I:C),costimulatory molecules (CD86) and MHC class II / activation of dendritic cells,[2],also activated dendritic cells
B1,induction of anti-OVA257-264 CD8^+T cells,[5],no significant induction

# From patent US8685408B2 (priority 2006, dated 2014)
